Key:
S. thermophilus DGCC715 = assay: Natural transformation in CDM upon addition of synthetic peptide; format: cell-based, Streptococcus thermophilus; conditions: 1 μM LPYFAGCL, 1 μg/mL pUC18_stu0855::P32cat
Protocol: (§1) Similarly to the protocol used in example 4, various S. thermophilus strains, including LMD-9, CNRZ1066 and LMG18311 used as controls, were pre-cultivated in M17-lactose medium. The cells of the precultures were harvested (5000 g, 9 minutes, 20° C.) and washed twice in CDM and then resuspended in CDM. The washed cells were diluted in fresh CDM medium to obtain an optical density of 0.05, and then incubated at 37° C. After 1.5 h of incubation, in one set of experiment, 1 μM of one of the tested synthetic peptides (LPYFAGCL) (SEQ ID NO: 85) and 1 μg/mL of pGIUD0855cat DNA were added to the culture, whereas 1 μg/mL of DNA but no synthetic peptide was added to the second set of experiment. Plasmid pGIUD0855cat is a pUC18-derivative containing a chloramphenicol resistance cassette flanked by 1-kb fragments corresponding to the upstream and downstream regions of stu0855. Upon transformation, it promotes the genetic replacement of stu0855 by P32-cat through homologous recombination (FIG. 7). The cultures were grown during 6 hours and serial dilutions were plated on the surface of M17-lactose agar medium containing 5 μg/mL of chloramphenicol to measure transformation efficiency. Transformed S. thermophilus cells were selected at 37° C.; when transformants were obtained, the transformation efficiency was calculated and is given in Table 9.

S. thermophilus DGCC7909 = assay: as above; format: cell-based, Streptococcus thermophilus; conditions: 1 μM LPYFAGCL, 1 μg/mL pUC18_stu0855::P32cat
Protocol: as §1

S. thermophilus DGCC7710 = assay: as above; format: cell-based, Streptococcus thermophilus; conditions: 1 μM LPYFAGCL, 1 μg/mL pUC18_stu0855::P32cat
Protocol: as §1

S. thermophilus DGCC7790 = assay: as above; format: cell-based, Streptococcus thermophilus; conditions: 1 μM LPYFAGCL, 1 μg/mL pUC18_stu0855::P32cat
Protocol: as §1

S. thermophilus DGCC7694 = assay: as above; format: cell-based, Streptococcus thermophilus; conditions: 1 μM LPYFAGCL, 1 μg/mL pUC18_stu0855::P32cat
Protocol: as §1

S. thermophilus DGCC7891 = assay: as above; format: cell-based, Streptococcus thermophilus; conditions: 1 μM LPYFAGCL, 1 μg/mL pUC18_stu0855::P32cat
Protocol: as §1

S. thermophilus DGCC7854 = assay: as above; format: cell-based, Streptococcus thermophilus; conditions: 1 μM LPYFAGCL, 1 μg/mL pUC18_stu0855::P32cat
Protocol: as §1

S. thermophilus DGCC7809 = assay: as above; format: cell-based, Streptococcus thermophilus; conditions: 1 μM LPYFAGCL, 1 μg/mL pUC18_stu0855::P32cat
Protocol: as §1

S. thermophilus DGCC7773 = assay: as above; format: cell-based, Streptococcus thermophilus; conditions: 1 μM LPYFAGCL, 1 μg/mL pUC18_stu0855::P32cat
Protocol: as §1

S. thermophilus DGCC7796 = assay: as above; format: cell-based, Streptococcus thermophilus; conditions: 1 μM LPYFAGCL, 1 μg/mL pUC18_stu0855::P32cat
Protocol: as §1

S. thermophilus DGCC782 = assay: as above; format: cell-based, Streptococcus thermophilus; conditions: 1 μM LPYFAGCL, 1 μg/mL pUC18_stu0855::P32cat
Protocol: as §1

S. thermophilus DGCC3367 = assay: as above; format: cell-based, Streptococcus thermophilus; conditions: 1 μM LPYFAGCL, 1 μg/mL pUC18_stu0855::P32cat
Protocol: as §1

S. thermophilus DGCC7853 = assay: as above; format: cell-based, Streptococcus thermophilus; conditions: 1 μM LPYFAGCL, 1 μg/mL pUC18_stu0855::P32cat
Protocol: as §1

S. thermophilus DGCC7666 = assay: as above; format: cell-based, Streptococcus thermophilus; conditions: 1 μM LPYFAGCL, 1 μg/mL pUC18_stu0855::P32cat
Protocol: as §1

S. thermophilus DGCC7879 = assay: as above; format: cell-based, Streptococcus thermophilus; conditions: 1 μM LPYFAGCL, 1 μg/mL pUC18_stu0855::P32cat
Protocol: as §1

[1] = tested on: various S. thermophilus strains; assay: Competence induction over the panel of S. thermophilus strains (summary of Table 9); format: cell-based, Streptococcus thermophilus
Protocol: as §1

S. salivarius JIM8777 = assay: Natural transformation in CDM upon addition of synthetic peptide; format: cell-based, Streptococcus salivarius
Protocol: Similarly to the protocol used in example 4, strains LMD-9, LMG18311, CNRZ1066 and JIM8777 were pre-cultivated in M17-lactose medium. The cells of the precultures were harvested (5000 g, 9 minutes, 20° C.) and washed twice in CDM and then resuspended in CDM. The washed cells were diluted in fresh CDM medium to obtain an optical density of 0.05, and then incubated at 37° C. After 1.5 h of incubation, in one set of experiment, 1 μM of one of the tested synthetic peptides and 1 μg/mL of pGIUD0855ery DNA (in case of S. thermophilus strains), or 1 μg/ml of pG+host09 DNA (in case of S. salivarius strains) were added to the culture, whereas 1 μg/mL of DNA but no synthetic peptide was added to the second set of experiment. The cultures were grown during 6 hours and serial dilutions were plated on the surface of M17-lactose agar medium containing 2.5 μg/mL of erythromycin to measure transformation efficiency. Transformed S. thermophilus and S. salivarius cells are selected at 37° C. and 29° C., respectively.
Day 2: • Centrifuge Day 1—culture (centrifugation parameters: 5000 g, 9 minutes, 15° C.) and perform two washing steps with one volume (10 mL) of CDM (centrifugation parameters: 5000 g, 9 minutes, 15° C.). • Dilute the culture in 10 mL CDM to obtain an OD600nm of 0.05. • A small volume of S. thermophilus cultures (300 μL) is then transferred in white microplate with a transparent bottom (655095; Greiner, Alphen aid Rijn, The Netherlands) and is grown at 37° C. Luminescence at 595 nm and optical density at 600 nm are recorded with the automatic Synergy HT multi-mode microplate reader. The luciferase activity catalysed by LuxAB requires the presence of nonanal as substrate. In this experimental set-up, nonanal (Acros Organics ref. 204-688-5) is supplied to the cultures by placing 50 μL of a solution containing 1% nonanal diluted in mineral oil in the spaces between the wells of a covered microplate (11). The nonanal present in the solution will become volatile and there will be an equilibrium between the concentration of nonanal present in the air and in the culture samples. The luminescence and absorbance are scanned every 10 minutes during 6 hours. • To perform a competence experiment, 1 μg of donor DNA is added in the 300 μL samples in the beginning of incubation. […] In case of the sample that received DNA, make different 10-fold dilutions of the sample and plate 100 μL on the same solid selective medium. Check the viability of the cells in the samples by plating 10 μL of serial 10-fold dilutions of the cultures on M17, lactose 1% medium. Transformants are picked following 24 h of incubation at 37° C. in anaerobic conditions (gaspak BBL). […]

| Substance | Transformation rate, With peptide addition (S. thermophilus DGCC715) | Transformation rate, With peptide addition (S. thermophilus DGCC7909) | Transformation rate, With peptide addition (S. thermophilus DGCC7710) | Transformation rate, With peptide addition (S. thermophilus DGCC7790) | Transformation rate, With peptide addition (S. thermophilus DGCC7694) | Transformation rate, With peptide addition (S. thermophilus DGCC7891) | Transformation rate, With peptide addition (S. thermophilus DGCC7854) | Transformation rate, With peptide addition (S. thermophilus DGCC7809) | Transformation rate, With peptide addition (S. thermophilus DGCC7773) | Transformation rate, With peptide addition (S. thermophilus DGCC7796) | Transformation rate, With peptide addition (S. thermophilus DGCC782) | Transformation rate, With peptide addition (S. thermophilus DGCC3367) | Transformation rate, With peptide addition (S. thermophilus DGCC7853) | Transformation rate, With peptide addition (S. thermophilus DGCC7666) | Transformation rate, With peptide addition (S. thermophilus DGCC7879) | Improvement of the efficiency of transformation by the addition of the peptide ([1]; 1 μM LPYFAGCL versus no peptide) | Number of strains competent when CDM is supplemented with the peptide ([1]; 1 μM LPYFAGCL, 9 competent without peptide) [strains] | Number of strains whose efficiency of transformation was greatly improved by the addition of the peptide ([1]; out of the 19 competent strains) [strains] | Transformation rate, With peptide addition (S. salivarius JIM8777; 1 μM PYFAGCL, 1 μg/mL pG+host9) | Complementation of the transformation defect in CDM (S. salivarius JIM8777; 1 μM peptide, result in words) |
| --- | --- | --- | --- | --- | --- | --- | --- | --- | --- | --- | --- | --- | --- | --- | --- | --- | --- | --- | --- | --- |
| LPYFAGCL (fragment) [synthetic peptide corresponding to a C-terminal fragment of Shp316] | 1.2 × 10^−2 | 4.5 × 10^−3 | 1 × 10^−2 | 4.3 × 10^−2 | 3.9 × 10^−2 | 1.4 × 10^−4 | 5.3 × 10^−3 | 5.8 × 10^−4 | 1.5 × 10^−1 | 6.9 × 10^−2 | 2 × 10^−3 | 1.8 × 10^−3 | 4.9 × 10^−4 | 4.2 × 10^−2 | 8.6 × 10^−3 | up to 6 Log | 19 | 17 | – | – |
| PYFAGCL (fragment) | – | – | – | – | – | – | – | – | – | – | – | – | – | – | – | – | – | – | 3.07 × 10^−6 | complements the transformation defect |
